# Results as given in EP3782997A1, “FUSED PYRIMIDINE COMPOUNDS AND PHARMACEUTICAL COMPOSITIONS THEREOF FOR THE TREATMENT OF FIBROTIC DISEASES” (Galapagos N.V., priority 2019, dated 2021).
# Target: hENPP2 (Homo sapiens, UniProt Q13822)
# Assay: Human ENPP2 (hENPP2) biochemical assay using LPC as substrate
# Conditions: 150 µM LPC (palmitoyl 16:0), 37°C for 30 min
# Summary of the method: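 Enzyme at 1 or 3 µg/mL final in Tris-HCl pH 8.5, NaCl, KCl, CaCl2, fatty-acid-free BSA; reaction started with 150 µM LPC 16:0 (as added), 30 min at 37°C. Released choline developed with choline oxidase/peroxidase/TOOS/4-aminoantipyrine plus EGTA stop, read at 555 nm after 30 min; 1/3 dilutions from 50 µM give IC50.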
row,IC50 [nM],Structure (SMILES)
1,0.01 to 100,"Cc1cc(C)cc(Nc2ncc3c(n2)CN(C2CCN(C(=O)c4ccc5[nH]nnc5c4)C(C(F)(F)F)C2)C3)c1 (centres unmarked) [compound 107, 1H-benzotriazol-5-yl-[4-[2-(3,5-dimethylanilino)-5,7-dihydropyrrolo[3,4-d]pyrimidin-6-yl]-2-(trifluoromethyl)-1-piperidyl]methanone]"
2,0.01 to 100,"Cc1cc(C)cc(Nc2ncc3c(n2)CCN(C2CCN(C(=O)c4ccc5[nH]nnc5c4)CC2)CC3)c1 [compound 109, 1H-benzotriazol-5-yl-[4-[2-(3,5-dimethylanilino)-5,6,8,9-tetrahydropyrimido[4,5-d]azepin-7-yl]-1-piperidyl]methanone]"
3,0.01 to 100,"COc1cc2[nH]nnc2cc1C(=O)N1CC[C@@H](N2Cc3cnc(Nc4cc(C)cc(C)c4)nc3C2)C[C@@H]1C [compound 112, [(2S,4R)-4-[2-(3,5-dimethylanilino)-5,7-dihydropyrrolo[3,4-d]pyrimidin-6-yl]-2-methyl-1-piperidyl]-(6-methoxy-1H-benzotriazol-5-yl)methanone]"
4,0.01 to 100,"COc1cc2[nH]nnc2cc1C(=O)N1CC[C@H](N2Cc3cnc(Nc4cc(C)cc(C)c4)nc3C2)C[C@@H]1C [compound 113, [(2S,4S)-4-[2-(3,5-dimethylanilino)-5,7-dihydropyrrolo[3,4-d]pyrimidin-6-yl]-2-methyl-1-piperidyl]-(6-methoxy-1H-benzotriazol-5-yl)methanone]"
5,0.01 to 100,"Cc1cc(C)cc(Nc2ncc3c(n2)CN([C@H]2CCN(C(=O)c4cc5nn[nH]c5cc4F)[C@H](C)C2)C3)c1 [compound 116, [(2R,4S)-4-[2-(3,5-dimethylanilino)-5,7-dihydropyrrolo[3,4-d]pyrimidin-6-yl]-2-methyl-1-piperidyl]-(6-fluoro-1H-benzotriazol-5-yl)methanone]"
6,0.01 to 100,"COc1cc2[nH]nnc2cc1C(=O)N1CC[C@H](N2Cc3cnc(Nc4cc(C)cc(C)c4)nc3C2)C[C@H]1C [compound 120, [(2R,4S)-4-[2-(3,5-dimethylanilino)-5,7-dihydropyrrolo[3,4-d]pyrimidin-6-yl]-2-methyl-1-piperidyl]-(6-methoxy-1H-benzotriazol-5-yl)methanone]"
7,> 1000,"Cc1cc(C)cc(Nc2ncc3c(n2)CN([C@H]2CCN(C(=O)c4cccc(-c5nnn[nH]5)c4)[C@@H](C)C2)C3)c1 [compound 123, [(2S,4S)-4-[2-(3,5-dimethylanilino)-5,7-dihydropyrrolo[3,4-d]pyrimidin-6-yl]-2-methyl-1-piperidyl]-[3-(1H-tetrazol-5-yl)phenyl]methanone]"
8,0.01 to 100,"COc1cc(Nc2ncc3c(n2)CN([C@@H]2CCN(C(=O)c4ccc5[nH]nnc5c4)[C@H](C)C2)C3)ccc1F [compound 126, 1H-benzotriazol-5-yl-[(2R,4R)-4-[2-(4-fluoro-3-methoxy-anilino)-5,7-dihydropyrrolo[3,4-d]pyrimidin-6-yl]-2-methyl-1-piperidyl]methanone]"
9,0.01 to 100,"COc1cc(Nc2ncc3c(n2)CN([C@@H]2CCN(C(=O)c4ccc5[nH]nnc5c4)[C@H](C)C2)C3)cc(C(F)(F)F)c1 [compound 127, 1H-benzotriazol-5-yl-[(2R,4R)-4-[2-[3-methoxy-5-(trifluoromethyl)anilino]-5,7-dihydropyrrolo[3,4-d]pyrimidin-6-yl]-2-methyl-1-piperidyl]methanone]"
10,0.01 to 100,"C[C@@H]1C[C@@H](N2Cc3cnc(Nc4cc(C#N)cc(C(F)(F)F)c4)nc3C2)CCN1C(=O)c1ccc2[nH]nnc2c1 [compound 128, 3-[[6-[(2R,4S)-1-(1H-benzotriazole-5-carbonyl)-2-methyl-4-piperidyl]-5,7-dihydropyrrolo[3,4-d]pyrimidin-2-yl]amino]-5-(trifluoromethyl)benzonitrile]"

row,Structure (SMILES),IC50 [nM]
1,"Cc1cc(C)cc(Nc2ncc3c(n2)CN(C2CC4CCC(C2)N4C(=O)c2ccc4[nH]nnc4c2)C3)c1 (centres unmarked) [compound 114, 1H-benzotriazol-5-yl-[3-[2-(3,5-dimethylanilino)-5,7-dihydropyrrolo[3,4-d]pyrimidin-6-yl]-8-azabicyclo[3.2.1]octan-8-yl]methanone]",100 to 500
